In ChEMBL document CHEMBL3826902, “Synthesis and cytotoxic activities of semisynthetic zearalenone analogues” (Bioorg Med Chem Lett, 2016):
The source made the active and inactive calls. The calls are words filed in the database; no cut-off is given here.

Experiments:
KB [1] = assay: Cytotoxicity against human KB cells assessed as reduction in cell viability by resazurin microplate assay; format: functional, cell-based
MCF7 [2] = assay: Cytotoxicity against human MCF7 cells assessed as reduction in cell viability by resazurin microplate assay; format: functional, cell-based
Vero [3] = assay: Cytotoxicity against African green monkey Vero cells assessed as reduction in cell viability by green fluorescent protein-based assay; parameters: species or system Chlorocebus sabaeus
KB [4] = assay: Cytotoxicity against human KB cells assessed as reduction in cell viability at >50 ug/ml by resazurin microplate assay; format: functional, cell-based
MCF7 [5] = assay: Cytotoxicity against human MCF7 cells assessed as reduction in cell viability at >50 ug/ml by resazurin microplate assay; format: functional, cell-based
Vero [6] = assay: Cytotoxicity against African green monkey Vero cells assessed as reduction in cell viability at >50 ug/ml by green fluorescent protein-based assay; details: Chlorocebus sabaeus
[7] = Cytotoxicity against human HL60 cells assessed as reduction in cell viability after 24 hrs by MTT assay; format: functional, cell-based; details: HL-60, 24 h
[8] = Homo sapiens, KB, read-out: IC50
[9] = Chlorocebus sabaeus, Vero, read-out: IC50
[10] = Homo sapiens, MCF7, read-out: IC50

Structure (SMILES) | IC50 (KB [1]; kb) | IC50 (MCF7 [2]; mcf7) | IC50 (Vero [3]; vero) | Activity (KB [4]) | Activity (MCF7 [5]) | Activity (Vero [6]) | IC50 (KB [1]; [8]) [µM] | IC50 (Vero [3]; [9]) [µM] | IC50 (MCF7 [2]; [10]) [µM] | IC50 [7] [µM]
COc1cc2c(c(OC)c1)C(=O)O[C@@H](C)CCCC(=O)CCCCC2 | Not Active | Not Active | Not Active | inactive | inactive | Non-toxic |  |  |  | 
COc1cc2c(c(OC)c1)C(=O)O[C@@H](C)CCC[C@@H](O)CCCCC2 | Not Active | Not Active | Not Active | inactive | inactive | Non-toxic |  |  |  | 
CC(=O)Oc1cc(O)c2c(c1)/C=C/CCCC(=O)CCC[C@H](C)OC2=O |  | Not Active |  |  | inactive |  | 52.9 | 134 |  | 
CCCCCCCCOc1cc(O)c2c(c1)/C=C/CCC[C@H](O)CCC[C@H](C)OC2=O |  |  |  |  |  |  | 82.2 | 73.4 | 93.6 | 
C[C@H]1CCCC(=O)CCC/C=C/c2c(Cl)c(O)cc(O)c2C(=O)O1 |  | Not Active |  |  | inactive |  | 89.9 | 140 |  | 
COc1cc2c(c(OC)c1)C(=O)O[C@@H](C)CCCC(=O)CCC/C=C/2 | Not Active | Not Active | Not Active | inactive | inactive | Non-toxic |  |  |  | 
Cc1c2ccncc2c(C)c2c1[nH]c1ccccc12 [ELLIPTECINE] |  |  |  |  |  |  | 8.28 | 4.26 |  | 
C[C@H]1CCC[C@H](O)CCC/C=C/c2cc(O)cc(O)c2C(=O)O1 |  | Not Active |  |  | inactive |  | 100 | 60.3 |  | 
CCC(=O)Oc1cc(O)c2c(c1)/C=C/CCCC(=O)CCC[C@H](C)OC2=O |  | Not Active |  |  | inactive |  | 52.4 | 44.1 |  | 
COc1cc2c(c(OC)c1)C(=O)O[C@@H](C)CCC[C@H](O)CCC/C=C/2 | Not Active | Not Active | Not Active | inactive | inactive | Non-toxic |  |  |  | 
CC/C(=C(\c1ccccc1)c1ccc(OCCN(C)C)cc1)c1ccccc1 [TAMOXIFEN] |  |  |  |  |  |  |  |  | 19.3 | 
COc1cc(O)c2c(c1)CCCCC[C@@H](O)CCC[C@H](C)OC2=O | Not Active | Not Active | Not Active | inactive | inactive | Non-toxic |  |  |  | 
CCC(=O)Oc1cc(O)c2c(c1)/C=C/CCC[C@H](O)CCC[C@H](C)OC2=O |  | Not Active |  |  | inactive |  | 33.4 | 35 |  | 
COc1cc(O)c2c(c1)/C=C/CCC[C@@H](O)CCC[C@H](C)OC2=O |  |  |  |  |  |  | 104 | 53.1 | 93.3 | 
C[C@H]1CCCC(=O)CCCCCc2cc(O)cc(O)c2C(=O)O1 [ZEARALANONE] | Not Active | Not Active |  | inactive | inactive |  |  | 151 |  | 
CCCOc1cc(O)c2c(c1)/C=C/CCC[C@@H](O)CCC[C@H](C)OC2=O |  |  |  |  |  |  | 35.7 | 26.2 | 43.8 | 
CCC(=O)Oc1cc(O)c2c(c1)/C=C/CCC[C@@H](O)CCC[C@H](C)OC2=O |  | Not Active |  |  | inactive |  | 85.7 | 129 |  | 
CCCCCCCCOc1cc(O)c2c(c1)/C=C/CCC[C@@H](O)CCC[C@H](C)OC2=O |  |  |  |  |  |  | 40.9 | 24.2 | 75.2 | 
CC(=O)Oc1cc(O)c2c(c1)/C=C/CCC[C@H](O)CCC[C@H](C)OC2=O |  | Not Active |  |  | inactive |  | 48.9 | 13.6 |  | 

Structure (SMILES) | IC50 (KB [1]; kb) | IC50 (MCF7 [2]; mcf7) | IC50 (Vero [3]; vero) | Activity (KB [4]) | Activity (MCF7 [5]) | Activity (Vero [6]) | IC50 (KB [1]; [8]) [µM] | IC50 (Vero [3]; [9]) [µM] | IC50 (MCF7 [2]; [10]) [µM] | IC50 [7] [µM]
COc1cc(OC)c2c(c1Cl)/C=C/CCCC(=O)CCC[C@H](C)OC2=O | Not Active | Not Active | Not Active | inactive | inactive | Non-toxic |  |  |  | 
C[C@H]1CCC[C@@H](O)CCC/C=C/c2cc(O)cc(O)c2C(=O)O1 | Not Active | Not Active |  | inactive | inactive |  |  | 25.4 |  | 
CCCOc1cc(O)c2c(c1)/C=C/CCC[C@H](O)CCC[C@H](C)OC2=O |  |  |  |  |  |  | 83.4 | 53.3 | 81.9 | 
COc1cc(O)c2c(c1)CCCCC[C@H](O)CCC[C@H](C)OC2=O | Not Active | Not Active |  | inactive | inactive |  |  | 148 |  | 
C[C@H]1CCCC(=O)CCC/C=C/c2cc(O)cc(O)c2C(=O)O1 [ZEARALENONE] |  |  |  |  |  |  | 46.3 | 40.6 | 105 | 138
CCOc1cc(O)c2c(c1)/C=C/CCC[C@H](O)CCC[C@H](C)OC2=O |  |  |  |  |  |  | 60.1 | 45.3 | 70.2 | 
COc1cc(O)c2c(c1)/C=C/CCC[C@H](O)CCC[C@H](C)OC2=O |  | Not Active | Not Active |  | inactive | Non-toxic | 56 |  |  | 
COc1cc2c(c(OC)c1)C(=O)O[C@@H](C)CCC[C@H](O)CCCCC2 | Not Active | Not Active | Not Active | inactive | inactive | Non-toxic |  |  |  | 
COc1cccc2c1C(=O)c1c(O)c3c(c(O)c1C2=O)C[C@@](O)(C(=O)CO)C[C@@H]3O[C@H]1C[C@H](N)[C@H](O)[C@H](C)O1 [DOXORUBICIN] |  |  |  |  |  |  | 1.06 |  |  | 
C[C@H]1CCC[C@H](O)CCCCCc2cc(O)cc(O)c2C(=O)O1 [ZERANOL] | Not Active | Not Active |  | inactive | inactive |  |  | 50 |  | 
COc1cc2c(c(OC)c1)C(=O)O[C@@H](C)CCC[C@@H](O)CCC/C=C/2 | Not Active | Not Active | Not Active | inactive | inactive | Non-toxic |  |  |  | 
CC(=O)Oc1cc2c(c(OC(C)=O)c1)C(=O)O[C@@H](C)CCCC(=O)CCC/C=C/2 |  | Not Active |  |  | inactive |  | 59.7 | 48 |  | 
CC(=O)Oc1cc(O)c2c(c1)/C=C/CCC[C@@H](O)CCC[C@H](C)OC2=O |  |  |  |  |  |  | 51.6 | 136 | 89 | 
CCC(=O)Oc1cc2c(c(OC(=O)CC)c1)C(=O)O[C@@H](C)CCCC(=O)CCC/C=C/2 | Not Active | Not Active | Not Active | inactive | inactive | Non-toxic |  |  |  | 
COc1cc(O)c2c(c1Cl)/C=C/CCCC(=O)CCC[C@H](C)OC2=O |  | Not Active |  |  | inactive |  | 108 | 51.4 |  | 
CCOc1cc(O)c2c(c1)/C=C/CCC[C@@H](O)CCC[C@H](C)OC2=O |  |  | Not Active |  |  | Non-toxic | 66.9 |  | 61.8 | 
C[C@H]1CCC[C@@H](O)CCCCCc2cc(O)cc(O)c2C(=O)O1 [TALERANOL] | Not Active | Not Active |  | inactive | inactive |  |  | 22.6 |  | 
COc1cc(O)c2c(c1)/C=C/CCCC(=O)CCC[C@H](C)OC2=O | Not Active | Not Active | Not Active | inactive | inactive | Non-toxic |  |  |  | 
COc1cc(O)c2c(c1)CCCCCC(=O)CCC[C@H](C)OC2=O | Not Active | Not Active | Not Active | inactive | inactive | Non-toxic |  |  |  | 
